Some test systems named below: MDA-MB-435; DU-145 prostate; BT-549 breast; T-47D breast; MDA-MB-231 breast.
Experiment in all cases: NCI-60 cell line screen, 48 h

“And” between values parts separate entries of the source, which are not always exact repeats. Equal entries are not always repeated.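 Cultured in 96-well plates, cells were exposed to test compound for 48 hours across five concentrations. Abbreviation: GI50, concentration required for 50% inhibition of growth. TGI is the concentration that stops growth completely.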

As for `COc1cc(CNC(=O)/C=C/C=C/c2ccc3c(c2)OCO3)ccc1OCc1cn(-c2ccc(Cl)c(Cl)c2)nn1`, the GI50 was 2 µM in the assay on MDA-MB-435; 1.45 µM in the assay on DU-145 prostate; 1.83 µM in the assay with BT-549 breast; 1.17 µM in the assay on T-47D breast; 1.95 µM in the assay on MDA-MB-231 breast. Moreover, the TGI in the assay with MDA-MB-435 was found to be 4.75 µM; with DU-145 prostate, 3.16 µM; in the assay on BT-549 breast, 4.46 µM; with T-47D breast, 3.49 µM; with MDA-MB-231 breast it was 5 µM.

Consider `COc1cc2c(cc1OC)C(CCc1ccc(Cl)cc1)N(C)CC2` (stereo not given), for which the GI50 is 16.3 µM with MDA-MB-435; 51.9 µM with DU-145 prostate; 33.5 µM in the assay on BT-549 breast; 23.8 µM in the assay with T-47D breast; 16.3 µM in the assay with MDA-MB-231 breast. The TGI was 41.2 µM in the assay on MDA-MB-435; above 100 µM with DU-145 prostate; above 100 µM with BT-549 breast; 76.8 µM in the assay with T-47D breast; 39.1 µM with MDA-MB-231 breast.

For the compound `CC(C)=CC/C=C(/C)[C@H]1CC[C@]2(C)[C@@H]1CC[C@@H]1[C@@]3(C)CCC(=O)NC(C)(C)[C@@H]3CC[C@]12C`, the GI50 was 20.7 µM in the assay with MDA-MB-435; 16.9 µM with DU-145 prostate; 18.7 µM in the assay with BT-549 breast; 19.8 µM with T-47D breast; 20.5 µM in the assay on MDA-MB-231 breast. Besides, the TGI in the assay with MDA-MB-435 came to 48.9 µM; in the assay with DU-145 prostate it was 31.7 µM; with BT-549 breast, 43.5 µM; with T-47D breast it was 91 µM; with MDA-MB-231 breast it was 44.3 µM.

`CCN1CCN(CCOc2ccc(CNc3ccc4nc(CCC5CCCCC5)[nH]c4c3)cc2)CC1`: the GI50 in the assay with MDA-MB-435 was 1.78 µM; with DU-145 prostate, 3.91 µM; in the assay with BT-549 breast it was 1.58 µM; in the assay with T-47D breast, 1.93 µM; in the assay on MDA-MB-231 breast it was 1.6 µM. Besides, the TGI was found to be 3.73 µM in the assay with MDA-MB-435; 14 µM in the assay on DU-145 prostate; 3.04 µM with BT-549 breast; 5.41 µM in the assay with T-47D breast; 3.11 µM in the assay on MDA-MB-231 breast.

`Nc1nc(N)c2cc(CNc3ccc(Cl)c(Cl)c3)ccc2n1`: the GI50 was 0.38 µM in the assay with MDA-MB-435; 0.68 µM in the assay on DU-145 prostate; 1.4 µM in the assay on BT-549 breast; 1.54 µM with T-47D breast; 0.803 µM in the assay on MDA-MB-231 breast. Also, the TGI with MDA-MB-435 was 1.78 µM; in the assay with DU-145 prostate, 1.93 µM; in the assay with BT-549 breast, 2.78 µM; with T-47D breast, 2.9 µM; in the assay on MDA-MB-231 breast, 2.16 µM.

In the case of `Cc1cccc(CN(C)c2ccc(CO)c(Cl)c2)c1`, the GI50 in the assay with MDA-MB-435 is 17.2 µM; in the assay with DU-145 prostate, 30.8 µM; in the assay on BT-549 breast, 15.8 µM; in the assay with T-47D breast, 1.04 µM; in the assay on MDA-MB-231 breast, 21.9 µM. Also, the TGI with MDA-MB-435 was 49.3 µM; in the assay on DU-145 prostate it was above 100 µM; with BT-549 breast it was 42.9 µM; in the assay on T-47D breast it was 7.66 µM; with MDA-MB-231 breast it was above 86.2 µM.

With `O=C1NC(=NCC(CO)c2ccccc2)S/C1=C\c1ccc2ncccc2c1` (stereo not given), the GI50 in the assay with MDA-MB-435 was 11.3 µM; with DU-145 prostate it was 18.4 µM; in the assay on BT-549 breast it was 13.3 µM; in the assay on T-47D breast, 25 µM; in the assay on MDA-MB-231 breast it was above 25 µM. Moreover, the TGI with MDA-MB-435, in the assay with DU-145 prostate, in the assay on BT-549 breast, in the assay on T-47D breast and in the assay on MDA-MB-231 breast was above 25 µM in each case.

For the compound `C=C1CC[C@@H]2C(C)(C)[C@@H](O)CC[C@@]2(C)[C@@H]1COc1ccc2ccc(=O)oc2c1`, the GI50 was 13.6 µM in the assay with MDA-MB-435; 17.3 µM in the assay with DU-145 prostate; 6.65 µM in the assay on BT-549 breast; 5.81 µM with T-47D breast; 15.4 µM in the assay on MDA-MB-231 breast. In addition, the TGI with MDA-MB-435 came to 27.6 µM; in the assay on DU-145 prostate, 48.2 µM; in the assay on BT-549 breast it was 20.1 µM; in the assay on T-47D breast, 32.5 µM; with MDA-MB-231 breast it was 31.8 µM.

With `COC1=C(OC)C(=O)C(/C=C(\C)C(=O)O)=C(C)C1=O`, the GI50 with MDA-MB-435, with DU-145 prostate, in the assay on BT-549 breast, with T-47D breast and in the assay with MDA-MB-231 breast was above 100 µM throughout. The TGI with MDA-MB-435, in the assay on DU-145 prostate, in the assay on BT-549 breast, in the assay on T-47D breast and in the assay with MDA-MB-231 breast was above 100 µM each time.

Turning to `Cc1ccc(-n2c3c(c4c(CN5CCCCC5)c(O)ccc42)CCc2ccccc2C3=O)cc1`, the GI50 with MDA-MB-435 was above 100 µM; in the assay with DU-145 prostate, above 100 µM; in the assay on BT-549 breast, above 100 µM; in the assay with T-47D breast it was above 100 µM; in the assay on MDA-MB-231 breast, 30.7 µM. For the same compound, the TGI with MDA-MB-435, in the assay with DU-145 prostate, with BT-549 breast, with T-47D breast and with MDA-MB-231 breast was above 100 µM each time.

Consider `CCCc1cc(=O)oc2c(C(=O)CC(C)C)c(O)c(CC=C(C)C)c(O)c12`, for which the GI50 with MDA-MB-435 was 11.8 µM; in the assay with DU-145 prostate, 14.4 µM; in the assay on BT-549 breast, 7.85 µM; in the assay on T-47D breast, 9.33 µM; in the assay with MDA-MB-231 breast, 9.81 µM. In addition, the TGI in the assay on MDA-MB-435 is 43.1 µM; with DU-145 prostate it was above 50 µM; in the assay on BT-549 breast it was 42.4 µM; in the assay with T-47D breast it was 40.3 µM; in the assay with MDA-MB-231 breast it was 24.7 µM.

`C=CCN1C(=O)/C(=c2\sc3n(c2=O)C2C(NN=3)N(CC)C(=O)N2CC)c2ccccc21` (stereo not given): the GI50 with MDA-MB-435 is 0.207 µM; with DU-145 prostate, 0.59 µM; in the assay with BT-549 breast it was 1.65 µM; in the assay on T-47D breast, 0.438 µM; in the assay with MDA-MB-231 breast it was 1.23 µM. The TGI in the assay on MDA-MB-435 is 0.491 µM; in the assay with DU-145 prostate, above 37.3 µM; with BT-549 breast it was above 75.6 µM; in the assay with T-47D breast, above 100 µM; in the assay on MDA-MB-231 breast it was 7.96 µM.

On to `Oc1nc(NCCc2ccccc2)sc1/C=C1\C=Nc2ncccc21`, for which the GI50 with MDA-MB-435 is 2.41 µM and 2.83 µM; with DU-145 prostate, 2.96 µM and 3.09 µM; in the assay on BT-549 breast, 1.23 µM and 1.35 µM; with T-47D breast, 2.15 µM and 3.22 µM; in the assay with MDA-MB-231 breast, 3.05 µM and 3.74 µM. Also, the TGI in the assay on MDA-MB-435 is 8.54 µM and 12.2 µM; in the assay with DU-145 prostate, 12.8 µM and 16.5 µM; in the assay with BT-549 breast, 3.26 µM and 3.34 µM; in the assay with T-47D breast, 9.09 µM and 8.2 µM; with MDA-MB-231 breast it was 9.27 µM and 21.6 µM.

The values above are taken from PubChem BioAssay (NCI).
